Data published in patent US12508270B2, “Treatment of behavioral impairment in developmental and epileptic encephalopathy” (Harmony Biosciences Management, Inc., priority 2019, dated 2025).

Test system: child and adolescent epilepsy patients with developmental and epileptic encephalopathies (DEE)
Assay: Qualitative caregiver feedback at Week 26
Type: in vivo, human
Conditions: transdermal CBD
Excerpt: Qualitative assessment of improvement, worsening, or no change for the patient and family, such as but not limited to, daily activities, school attendance and alertness. In the examples, clinicians were asked to capture qualitative caregiver feedback at Week 26 with the following questions asked: (1) “Has anything improved for [patient name] and your family since [patient name] has been using the gel?”; (2) “Has anything got worse since for [patient name] and your family since [patient name] has been using the gel?”; and (3) “Let me just ask about a few specific things: Daily activities e.g. school attendance? If so how? Alertness? If so how?”.
Parents/caregivers were instructed to capture seizure frequency and type, and skin irritation scores, within daily diaries. Parents/caregivers also completed: • (1) The University of Washington Caregiver Stress Scale at Day 1, Week 14, and Week 26. • (2) Epilepsy and Learning Disabilities Quality of Life scale (ELDQOL—modified) at Day 1, Week 14 and Week 26. • (3) Sleep Disturbance Scale for Children (SDSC) at Day 1, Week 14 and Week 26. • (4) Vineland Adaptive Behavior Scale-3 (VABS-3) at Day 1 and Week 26. • (5) Parents/caregivers also completed a daily Likert-type “good day/bad day” questionnaire. • (6) Qualitative Caregiver Feedback at Week 26. Objectives […]

C=C(C)C1CCC(C)=CC1c1c(O)cc(CCCCC)cc1O (stereo not shown) [CBD, 2-[3-methyl-6-(1-methylethenyl)-2-cyclohexen-1-yl]-5-pentyl-1,3-benzenediol]
qualitative assessments by caregivers: improved many behavioral problems
